# Laboratory results reported in US8163953B2, “Compounds for lysosomal modulation and methods of use” (University of Connecticut, priority 2008, dated 2012).
# Entries after “also recorded” stand apart in the source; their conditions may differ. Where two headings read alike, the source gives them in different places. Peptide text beside a SMILES is read from it. * marks the point of attachment. Cbz = O=C(OCc1ccccc1)*; CHN2 = [N-]=[N+]=C*
# Columns and labels:
# [1] = tested on: cathepsin D; assay: Cathepsin D up-regulation in hippocampal slice cultures (immunoblot); assay type: cell-based; conditions: for EC50: increase of cathepsin D levels, slices treated daily for 3-6 days; for EC2-fold (concentration needed for a 2-fold increase in cathepsin levels) / potency of increasing cathepsin D levels (in words): hippocampal slice cultures; for potency of increasing cathepsin D levels (in words): treated daily 3-6 days
# Description: The cultured slices were treated daily with different modulator concentrations for 3-6 days. […] BW1001 was not tested further due to its low potency.
# The hippocampal slices were maintained in culture for 10-12 days to stabilize, then were treated daily with different modulator concentrations for 3 days. Then they were harvested rapidly in ice-cold buffer and homogenized in the presence of protease inhibitors.
# Equal protein aliquots of the slice samples were subjected to immunoblotting to label the proform and the active form of cathepsin D (CD). FIG. 3A is an immunoblot showing PADK induced increases in the proform and active form of cathepsin D in hippocampal slice cultures. FIG. 3B is a graph showing the dose-dependent up-regulation of cathepsin D in hippocampal slice cultures by PADK and by BW1002.
# Slices were treated daily for 3 days with 10 μM compound, then harvested rapidly for immunoblot assessment of active CD levels (ANOVA: P<0.0001). FIG. 5 is a bar graph showing the results of these tests. The data in FIG. 5 indicate that the non-peptide lysosomal modulators provide potent lysosomal modulation that enhances clearance of pathogenic accumulations. All data represent means±SEM.
# [2] = tested on: pre- and postsynaptic markers; assay: Synaptic marker assessment in treated slice cultures
# Description: (§4) Potential toxicity was tested by assessing synaptic markers and subjecting media samples from the treated slice cultures to a standard LDH assay.
# [3] = tested on: hippocampal slice cultures; assay: LDH assay on media of treated slice cultures; conditions: for LDH release: media samples from treated slice cultures
# Description: as §4
# [4] = tested on: pre- and postsynaptic markers
# Description: as §4
# [5] = tested on: hippocampal slice cultures
# Description: as §4
# [6] = tested on: cathepsin; assay: Cathepsin enhancement and synaptic marker recovery in a protein accumulation model; assay type: cell-based
# Description: Increased lysosomal enzyme activities are an indicator of cellular responses aimed at compensating for accumulating material. Evidence of compensatory up-regulation of lysosomal enzymes in response to lysosome stress and protein accumulation has led to the identification of a pharmacological avenue for promoting such responses. This pharmacological avenue has been used to identify and synthesize the compounds described herein, which are effective as lysosomal modulators. The base structures of PADK and Z-Phe-Phe-diazomethylketone (PPDK) were used for the design of new lysosomal modulators because PADK and PPDK enhance cathepsin levels at 0.3-10 μM, resulting in 70-80% recovery of synaptic markers that were lost in a protein accumulation model. Other modulators, including diazoacetyl-DL-2-aminohexanoic acid methyl ester, require up to 30 μM to produce neuroprotective effects, but result in only 24-42% synaptic recovery.
# [7] = tested on: APPSwInd and APPswe/PS1ΔE9 mice; assay: Synaptic markers in APPSwInd and APPswe/PS1ΔE9 mice treated with PADK; assay type: in vivo; conditions: two Alzheimer's mouse models, immunoblot of homogenates
# Description: To compare the BW1002/1005 results to previous PADK work, homogenate samples were analyzed by immunoblot for the presynaptic protein synapsin II and postsynaptic glutamatergic marker GluR1.
# [8] = tested on: cathepsin B; assay: In vivo lysosomal modulation by PADK in mice
# Description: The enhanced cathepsin staining was evident in many brain regions and co-localized with the lysosomal marker LAMP-1.
# (§1) The modulator PADK up-regulates cathepsins without causing adverse effects. Hippocampal homogenates were assessed for the mice. FIGS. 6A-D are graphs showing the effects of PADK doping on various biological and physical attributes of 10 month old mice.
# (§2) FIG. 6D is a graph showing the results of motor skills and spatial memory tests. Motor skills and coordination were assessed using a variable-speed rotating rod and measuring the time the animal could remain moving on the rod. Spatial memory was tested with a conditions place preference (CPP) North-South paradigm in which the animal must remember where a previous reward was presented. Thus, the lysosomal modulation occurred in the absence of any evident effects on liver/kidney integrity, blood urea levels, or on normal brain functionality.
# [9] = tested on: cathepsins B and D; conditions: in vivo; cited from earlier work
# [10] = tested on: APPswe/PS1ΔE9 mice; assay: Spontaneous alternation behavior in a T-maze, APPswe/PS1ΔE9 mice; assay type: in vivo
# Description: (§3) The improvement of synaptic integrity by PADK was also associated with the reduction of behavioral deficits in the mouse models. FIG. 9C is a bar graph showing rotorod performance for several groups of mice. […] FIG. 9D is a bar graph illustrating spontaneous alternation behavior in the second type of Alzheimer's mouse model (APPswe/PS1ΔE9). APPswe/PS1ΔE9 mice treated with vehicle or PADK were tested on the hippocampal-dependent task of spontaneous alternation behavior in a T-maze. The mice were allowed to explore starting from the intersection of a T-maze, and were monitored for the order of entries into the three arms (arms A, B, and C). In control mice, every third explored arm is usually different than the previous two (e.g., A-B-C, B-A-C, etc.; the third decision being an alternation). Alzheimer's mice, on the other hand, frequently go back into one of the previous two arms explored (e.g., A-B-A, C-B-B), thus reducing the percent alternations. […] Open field mobility assessment confirmed no change in exploratory mobility across the different groups of mice.
# [11] = tested on: APPSwInd mice; assay: Rotarod performance of APPSwInd mice; assay type: in vivo; conditions: trials on the 8th and 9th injection days
# Description: as §3
# [12] = Adverse-effect assessment of PADK dosing in 10 month old mice; assay type: in vivo
# Description: as §1, §2
# [13] = tested on: human paired helical filaments (PHFs); assay: Chloroquine-induced hippocampal slice model of protein accumulation, PHF immunostaining; assay type: cell-based; conditions: 6 days chloroquine, then 3 μM for 2 days
# Description: FIGS. 2A-C are immunostains of hippocampal slice cultures for human paired helical filaments (PHFs). The pathogenic PHF was undetectable in control tissue, FIG. 2A, whereas cellular accumulation of PHF was evident after 6 days of chloroquine treatment followed by 2 days of washout, FIG. 2B. […] Size bar: 16 μm.
# [14] = tested on: PDGF-APPSwInd transgenic mice; assay: Synaptic protection in PDGF-APPSwInd transgenic mice (GluR1); assay type: in vivo; conditions: daily i.p.; BW1005 45 mg/kg, BW1002 25 mg/kg
# Description: Modulator BW1005, was administered daily i.p. into an Alzheimer's Disease model —PDGF-APPSwInd transgenic mice. The transgenic mice are hemizygotes for a mutant form of the human APP gene containing both the Swedish (K670N/M671L) and the Indiana (V717F) mutations (APPSwInd). […] Based on its potency in relation to PADK's effect in slices and mice, BW1005 was injected i.p. daily at a dose of 45 mg/kg.
# The brains of the mice were dissected and assessed for the postsynaptic marker GluR1. […] FIG. 7 is a bar graph showing the mean GluR1 measure ±SEM for each group studied (post hoc test: p=0.05). […] Changes in cathepsin levels may explain the synaptic protection.
structure (smiles),measurement,setting,value
"O=C(NC(Cc1ccccc1)[C@H](O)CNCc1ccccc1)OCc1ccccc1 (stereo partly drawn) [BW1001, (2R,3S)-3-Cbz amino-2-hydroxy-4-phenyl-1-benzyl amino butane]",EC50,[1],20 µM
"[N-]=[N+]=CC(=O)[C@H](Cc1ccccc1)NC(=O)[C@H](Cc1ccccc1)NC(=O)OCc1ccccc1 [PPDK, Z-Phe-Phe-diazomethylketone] (Cbz-Phe-Phe-CHN2)",EC2-fold (concentration needed for a 2-fold increase in cathepsin levels),[1],~5 µM
same,EC50,[1]; unit μm [sic],14 µM
"CC(=O)N(Cc1ccccc1)C[C@@H](O)C(Cc1ccccc1)NC(=O)OCc1ccccc1 (stereo partly drawn) [BW1002, (2R,3S)-3-Cbz amino-2-hydroxy-4-phenyl-1-(N-benzylacetamido) butane]",EC50,[1],3 µM
same,synaptic decline (pre- and postsynaptic markers),[2],did not cause synaptic decline or LDH release
same,LDH release,[3],did not cause synaptic decline or LDH release
"CC(=O)N(Cc1cccc2ccccc12)C[C@@H](O)[C@H](Cc1ccccc1)NC(=O)OCc1ccccc1 [BW1004, (2R,3S)-3-Cbz amino-2-hydroxy-4-phenyl-1-(N-naphthylmethylethanamido) butane]",synaptic decline (pre- and postsynaptic markers),[4],did not produce evident toxicity
same,potency of increasing cathepsin D levels (in words),[1],potencies at or near that of PADK
same,EC50,[1],20 µM
same,LDH release,[5],did not produce evident toxicity
"[N-]=[N+]=CC(=O)N(Cc1ccccc1)C[C@@H](O)[C@H](Cc1ccccc1)NC(=O)OCc1ccccc1 [BW1003, (2R,3S)-3-Cbz amino-2-hydroxy-4-phenyl-1-(N-benzyl-2-diazo-ethanamido) butane]",EC50,[1],2 µM
same,synaptic decline (pre- and postsynaptic markers),[2],caused evident synaptic decline
same,LDH release as % of maximal LDH release produced by total cellular disruption (1% TX-100),[3]; after 6 days of treatment,< 2%
same,LDH release,[3],time-dependent increase in LDH activity
CCCCC(NC(=O)C=[N+]=[N-])C(=O)OC (racemic) [diazoacetyl-DL-2-aminohexanoic acid methyl ester],concentration required to produce neuroprotective effects,[6],up to 30 μM
"C[C@H](NC(=O)[C@H](Cc1ccccc1)NC(=O)OCc1ccccc1)C(=O)C=[N+]=[N-] [PADK, Z-Phe-Ala-diazomethylketone]",GluR1 deficit,[7],significantly reduced the GluR1 deficit
same,EC2-fold (concentration needed for a 2-fold increase in cathepsin levels),[1],3.2 µM
same,EC50,[1]; unit μm [sic],10 µM
same,proform and active form of cathepsin D,"[1]; slices treated daily for 3 days, immunoblot",increased
same,immunostaining for the active form of cathepsin B in hippocampal cells,"[8]; 10-12-month old mice, 9 daily i.p. injections",dramatic increase in immunostaining
same,cathepsin levels in hippocampal homogenates,"[8]; 10 month old mice, across different dosages",dose-dependent increases in cathepsin levels
same,synaptic decline (pre- and postsynaptic markers),[2],did not cause synaptic decline or LDH release
same,LDH release,[3],did not cause synaptic decline or LDH release
same,rat brain levels of cathepsins B and D,[9],significant increases
same,spontaneous alternations,[10],significantly improved alternations
same,Rotarod performance across trials,[11],enabled the APPSwInd mice to improve across Rotarod trials
same,ALT (damage to liver function),[12],no change in either ALT or BUN
same,BUN (kidney compromise),[12],no change in either ALT or BUN
same,adverse effects on synaptic markers GluR1 and synaptophysin,[12],No adverse effects were evident
same,motor skills and coordination (variable-speed rotating rod),[12],"did not impair motor skills, coordination, or spatial memory"
same,spatial memory (CPP North-South paradigm),[12],"did not impair motor skills, coordination, or spatial memory"
same,clearance of chloroquine-induced PHF deposits in CA1 neurons,[13],clearance of most neuronal deposits of PHF material
"O=C(NC(Cc1ccccc1)[C@H](O)CN(Cc1ccccc1)C(=O)c1ccccc1)OCc1ccccc1 (stereo partly drawn) [BW1005, (2R,3S)-3-Cbz amino-2-hydroxy-4-phenyl-1-(N-benzylbenzamide) butane]",potency of increasing cathepsin D levels (in words),[1],potencies at or near that of PADK
same,EC50,[1],15 µM
same,synaptic protection: postsynaptic marker GluR1 in brain,[14],significant synaptic protection; also recorded: greater than that provided by PADK
same,synaptic decline (pre- and postsynaptic markers),[2],did not cause synaptic decline or LDH release
same,LDH release,[3],did not cause synaptic decline or LDH release
